Measurements taken from patent publication US20210275513A1, “SHELLAC MICROCAPSULE FORMULATIONS AND COMPOSITIONS FOR TOPICAL INTESTINAL DELIVERY OF VITAMIN B3” (CONARIS RESEARCH INSTITUTE AG, priority 2016, published 2021).
Values joined by “and” are separate entries in the source; they are usually repeats but may differ in a detail not shown here. Equal values may be shown once.

What was measured:
[1] = First-in-man (FIM) dose escalation study: NA and NAM serum levels by LC-MS/MS; assay type: in vivo, human
Procedure: (§1) Ten healthy volunteers were included and allocated to 2 groups of 5 subjects each. One group received NA and the other group received NAM.
In this dose escalation study, subjects ingested the test items in the morning from Monday to Thursday of every week, followed by a three-day washout period from Friday to Sunday (Table 7). Before and until 30 min after administration (or until after the second blood sampling on Mondays), subjects fasted with water only. During week 1, the subjects took one daily dose of 30 mg unformulated NA or 900 mg unformulated NAM, respectively, to measure the maximum systemic exposure and peak serum levels according to nutritional tolerable upper intake levels or levels without anticipated side effects (Table 8). From week 2 until week 6, NA microcapsules or NAM microcapsules packaged in gelatin capsules (see Example 1) were administered with weekly dose increases (Tables 7 and 8).
Blood samples were collected on Mondays and Thursdays (Table 7). On Mondays, the first blood sample was collected before ingestion of the capsules (“0 h” samples), and a second blood sample was taken after 2 hours (“2 h”), while subjects were still fasting. […] In addition, NA and NAM levels were measured in all blood samples by LC-MS/MS in an external specialised laboratory to determine exposure (see Example 1).

intestinal microbiota = assay: FIM study: microbiota analyses of stool samples (16S rRNA V3-V4 sequencing); assay type: in vivo, human; settings: for abundance-based (Bray curtis) bacterial communities distance compared with a healthy normal reference group: baseline vs end of FIM study
From the text: For microbiota analyses, stool samples were collected on the first Monday of the study (day 0, baseline sample) and subsequently once weekly on Thursdays (Table 7). Total genomic DNA was extracted from feces collected longitudinally from each subject using MoBio Powersoil DNA Isolation kit (Dianova GmbH, Hamburg, Germany) according to the manufacturer's instructions. Aliquots of extracted DNA were used to amplify the V3-V4 variable region of 16S rRNA using composite primers (319F and 806R), as described by Fadrosh et al. (Microbiome 2:6, 2014). Amplification was performed by Phusion® hot start flex 2X master mix (New England Biolabs, Frankfurt/M., Germany) in a GeneAmp PCR system 9700 (Life Technologies/Applied Biosystems, Darmstadt, Germany) using the following cycling conditions: an initial denaturation of 3 min at 98° C. followed by 30 cycles of denaturation at 98° C. for 10 s, annealing at 55° C. for 30 s and elongation at 72° C. for 30 s, and a final extension step at 72° C. for 10 min. PCR performance was assessed by agarose gel electrophoresis for quality (expected amplicon size) and quantity (band intensity). Quantitative normalization was performed using the SequalPrep kit (Life/Technologies/Invitrogen, Darmstadt, Germany) to pool equal amounts of amplicons per sample. Sequencing was performed by Illumina MiSeq (2×250 sequencing kit; Illumina, San Diego, Calif., USA), which allowed to generate paired end reads with entire overlapping in contigs generation. Sequencing reads were primarily processed for quality control using the software mothur (Schloss et al. 2009, Appl. Environ. Microbiol. 75:7537). Forward and reverse reads (fastq) were assembled to contig sequences and discarded if they had more than 475 bases, any ambiguous base or more than 8 homopolymers. Sequences were aligned against the mothur-curated silva alignment database and screened to have alignment in the amplified specified V3-V4 region only. Chimeric sequences were detected with the Uchime algorithm (Edgar et al. 2011, Bioinformatics 27:2194) and were also removed. […]

[2] = FIM dose escalation study: safety parameters (routine laboratory, blood pressure, body weight); settings: week 1 hour 71: 30 mg free NA (NA group) or 900 mg free NAM (NAM group) daily; individual subjects
Procedure: as §1
In this dose escalation study, subjects ingested the test items in the morning from Monday to Thursday of every week, followed by a three-day washout period from Friday to Sunday (Table 7). Before and until 30 min after administration (or until after the second blood sampling on Mondays), subjects fasted with water only. During week 1, the subjects took one daily dose of 30 mg unformulated NA or 900 mg unformulated NAM, respectively, to measure the maximum systemic exposure and peak serum levels according to nutritional tolerable upper intake levels or levels without anticipated side effects (Table 8).
In order to determine the intake of NA and NAM via the usual diet, a nutritional protocol was completed by the subjects from Mondays to Wednesdays. Blood samples were collected on Mondays and Thursdays (Table 7). On Mondays, the first blood sample was collected before ingestion of the capsules (“0 h” samples), and a second blood sample was taken after 2 hours (“2 h”), while subjects were still fasting. On Thursdays, blood samples were taken after administration of the capsules (“72 h”). Blood samples were subjected to routine laboratory analyses at the central laboratory of the University Hospital Schleswig-Holstein in Kiel (Germany). […] Blood pressure was measured on Mondays and Thursdays (Table 7).

[3] = Pilot pharmacokinetic (PK) study with NAM microcapsules: NA and NAM serum levels; assay type: in vivo, human
Procedure: The study was a self-experiment by medical investigators performed at the Department of Internal Medicine 1 of the University Hospital Schleswig-Holstein, Campus Kiel (Kiel, Germany).
In this study, subjects ingested either 900 mg of unformulated NAM (first week) or 900 mg of microencapsulated NAM packaged in gelatin capsules (second week). […] One such “low niacin meal” consisted of 150 g of apple, 150 g of red pepper and 100 g of cucumber. One niacin equivalent is defined as 1 mg of NA(M) or 60 mg of tryptophan.
Height and body weight were recorded before ingestion of the test item.

clinical = settings: both, human, in vivo, 900 mg, mean
Procedure: The study consisted of four study days, each separated by one week of washout and regeneration. On the calibration day of the study, the subjects ingested 30 mg of unformulated NA (NA group) or 900 mg of unformulated NAM (NAM group) as in the FIM study (see Example 2). Different doses of microencapsulated NA or NAM packaged in gelatin capsules were administered on the other three study days: 30 mg NA or 900 mg NAM, 150 mg NA or 1500 mg NAM, and 300 mg NA or 3000 mg NAM.
After 12 h of fasting overnight (with water only), a fasted blood sample was collected. After ingestion of NA, NAM or the respective capsules, blood samples were collected every hour until 8 hours after ingestion as well as after 10 and 12 hours. During the collection of blood samples, subjects remained fasted (with water ad libitum) except for two light meals with minimal vitamin B3 content after the blood samplings of hour 3 and hour 8. One such “low niacin meal” consisted of three rice wafers, one apple and one carrot with a total of 2.3 mg of niacin equivalents.
Statistical analyses were carried out using SPSS version 22.0 (SPSS, Chicago, Ill., USA), and graphic data analysis was performed with GraphPad Prism version 5.0 (GraphPad Software, San Diego, Calif., USA). […]

[4] = pH properties of shellac and NAM (dissolution pH, pH value); assay type: physicochemical

accumulation (serum levels at 72 hours vs baseline levels) [1] | NAM serum levels ([3]; 900 mg free or enc. NAM, hour 1, subjects 1-3) | NAM serum levels ([3]; 900 mg free or enc. NAM, hour 2, subjects 1-3) | NAM serum levels ([3]; 900 mg free or enc. NAM, hour 3, subjects 1-3) | NAM serum levels ([3]; 900 mg free or enc. NAM, hour 4, subjects 1-3) | time of peak of NAM serum levels after ingestion ([3]; 900 mg, three healthy volunteers) | concentration at 1 h ([3]; human, serum, oral, 900 mg, 900 mg free or enc. NAM, hour 1, subjects 1-3) | concentration at 2 h ([3]; human, serum, oral, 900 mg, 900 mg free or enc. NAM, hour 2, subjects 1-3) | concentration at 3 h ([3]; human, serum, oral, 900 mg, 900 mg free or enc. NAM, hour 3, subjects 1-3) | concentration at 4 h ([3]; human, serum, oral, 900 mg, 900 mg free or enc. NAM, hour 4, subjects 1-3) | AUC (clinical) | pH value [4] | SMILES | abundance-based (Bray curtis) bacterial communities distance compared with a healthy normal reference group (intestinal microbiota) | Bacteroidetes (read counts) (intestinal microbiota; before, during and at the end of the FIM study) | Blood pressure, systolic [2] | Glucose [2]
No NA or NAM accumulation was observed | – | – | – | – | – | – | – | – | – | – | – | O=C(O)c1cccnc1 [free NA, nicotinic acid] | significant change | moderate, but overall significant increase | 120 mm Hg and 130 mm Hg (2×) and 115 mm Hg and 105 mm Hg | 77 mg/dL and 92 mg/dL and 89 mg/dL and 85 mg/dL and 94 mg/dL
No NA or NAM accumulation was observed | 19,900 μg/L and 20,100 μg/L | 15,900 μg/L and 17,200 μg/L | 9,740 μg/L and 13,100 μg/L | 7,390 μg/L and 10,300 μg/L | 1 h | 11600 ng/mL | 10300 ng/mL | 8380 ng/mL | 5920 ng/mL | 78300 ng·h/mL | 6.61 | NC(=O)c1cccnc1 [free NAM, nicotinamide] | trend | – | 120 mm Hg (4×) and 105 mm Hg | 87 mg/dL and 80 mg/dL and 92 mg/dL and 84 mg/dL and 83 mg/dL
